Measured values published in EPA's CvTdb concentration-time database.

Experiments:
[1] = test system: Rat; test: concentration in plasma after dosing; conditions: 2 h; dosed: Gemfibrozil; 4.29 mg/kg; oral; Male; Sprague-Dawley
[2] = test system: Rat; test: concentration in plasma after dosing; conditions: 0.25 h; dosed: Gemfibrozil; 50 mg/kg; oral; Male; Sprague-Dawley
[3] = test system: Rat; test: concentration in plasma after dosing; conditions: 10 min; dosed: Gemfibrozil; 100 mg/kg; oral; Male; Sprague-Dawley
[4] = test system: Rat; test: concentration in plasma after dosing; conditions: 0.5 h; dosed: Gemfibrozil; 50 mg/kg; oral; Male; Sprague-Dawley
[5] = test system: Rat; test: concentration in plasma after dosing; conditions: 15 h; dosed: Gemfibrozil; 4.29 mg/kg; oral; Male; Sprague-Dawley
[6] = test system: Rat; test: concentration in liver after dosing; conditions: 0.5 h; dosed: Fluorotelomer alcohol 8+2; 80 mg/kg; oral; Female; Harlan Sprague Dawley
[7] = test system: Rat; test: concentration in brain after dosing; conditions: 6 h; dosed: Fluorotelomer alcohol 8+2; 80 mg/kg; oral; Female; Harlan Sprague Dawley
[8] = test system: Rat; test: concentration in liver after dosing; conditions: 6 h; dosed: Fluorotelomer alcohol 8+2; 24 mg/kg; oral; Male; Harlan Sprague Dawley
[9] = test system: Rat; test: concentration in plasma after dosing; conditions: 0.25 h; dosed: 678-39-7; 12 mg/kg; iv; Male; F344
[10] = test system: Rat; test: concentration in plasma after dosing; conditions: dosed: 678-39-7, 40 mg/kg, iv, Male, F344
[11] = test system: Rat; test: concentration in kidney after dosing; conditions: 3 h; dosed: Fluorotelomer alcohol 8+2; 24 mg/kg; oral; Male; Harlan Sprague Dawley
[12] = test system: Rat; test: concentration in plasma after dosing; conditions: dosed: 678-39-7, 12 mg/kg, iv, Male, F344
[13] = test system: rat; test: concentration in blood after dosing; negative times count back from the end of exposure; conditions: dosed: trichloroethylene, 50 ppm, inhalation, duration: 4 hr, male, Sprague Dawley
[14] = test system: Rat; test: concentration in liver after dosing; conditions: 24 h; dosed: Perfluorooctane Sulfonate; 2 mg/kg; oral; Female; Harlan Sprague Dawley
[15] = test system: Rat; test: concentration in liver after dosing; conditions: 6 h; dosed: Perfluorooctane Sulfonate; 2 mg/kg; oral; Female; Harlan Sprague Dawley
[16] = test system: Rat; test: concentration in brain after dosing; conditions: 6 h; dosed: Perfluorooctane Sulfonate; 20 mg/kg; oral; Male; Harlan Sprague Dawley
[17] = test system: Rat; test: concentration in brain after dosing; conditions: 6 h; dosed: Perfluorooctane Sulfonate; 20 mg/kg; oral; Female; F344
[18] = test system: Rat; test: concentration in liver after dosing; conditions: 3360 h; dosed: Perfluorooctane Sulfonate; 2 mg/kg; oral; Female; Harlan Sprague Dawley
[19] = test system: Rat; test: concentration in plasma after dosing; conditions: dosed: Perfluorooctane Sulfonate, 2 mg/kg, iv, Female, Harlan Sprague-Dawley
[20] = test system: Rat; test: concentration in plasma after dosing; conditions: 6 h; dosed: Perfluorooctane Sulfonate; 2 mg/kg; oral; Female; Harlan Sprague Dawley
[21] = test system: Rat; test: concentration in kidney after dosing; conditions: 6 h; dosed: Perfluorooctane Sulfonate; 2 mg/kg; oral; Female; Harlan Sprague Dawley
[22] = test system: Rat; test: concentration in plasma after dosing; conditions: dosed: Perfluorooctane Sulfonate, 2 mg/kg, iv, Female, F344
[23] = test system: Rat; test: concentration in brain after dosing; conditions: 2 h; dosed: 2-Methyltetrahydrofuran; 40 mg/kg; iv; Female; Harlan Sprague Dawley
[24] = test system: Rat; test: concentration in brain after dosing; conditions: 0.75 h; dosed: 2-Methyltetrahydrofuran; 40 mg/kg; iv; Male; Harlan Sprague Dawley
[25] = test system: Rat; test: concentration in brain after dosing; conditions: 0.75 h; dosed: 2-Methyltetrahydrofuran; 40 mg/kg; iv; Male; Harlan Sprague Dawley; remark: listed apart in the source
[26] = test system: Rat; test: concentration in brain after dosing; conditions: 2 h; dosed: 2-Methyltetrahydrofuran; 40 mg/kg; iv; Male; Harlan Sprague Dawley
[27] = test system: Rat; test: concentration in brain after dosing; conditions: 0.5 h; dosed: 2-Methyltetrahydrofuran; 40 mg/kg; iv; Male; Harlan Sprague Dawley
[28] = test system: Rat; test: concentration in brain after dosing; conditions: 0.2 h; dosed: 2-Methyltetrahydrofuran; 40 mg/kg; iv; Male; Harlan Sprague Dawley
[29] = test system: Rat; test: concentration in plasma after dosing; conditions: 7 min; dosed: 2-Methyltetrahydrofuran; 40 mg/kg; iv; Male; Harlan Sprague Dawley
[30] = test system: Rat; test: concentration in plasma after dosing; conditions: 2 min; dosed: 2-Methyltetrahydrofuran; 40 mg/kg; iv; Male; Harlan Sprague Dawley
[31] = test system: Rat; test: concentration in liver after dosing; conditions: 6 h; dosed: Perfluorohexanoic Acid; 80 mg/kg; oral; Female; Harlan Sprague Dawley
[32] = test system: Rat; test: concentration in liver after dosing; conditions: 1 h; dosed: Perfluorohexanoic Acid; 80 mg/kg; oral; Male; Harlan Sprague Dawley
[33] = test system: Rat; test: concentration in plasma after dosing; conditions: 0.25 h; dosed: Perfluorohexanoic Acid; 40 mg/kg; iv; Male; F344
[34] = test system: Rat; test: concentration in plasma after dosing; conditions: dosed: Perfluorohexanoic Acid, 80 mg/kg, oral, Male, Harlan Sprague Dawley
[35] = test system: Rat; test: concentration in kidney after dosing; conditions: 0.5 h; dosed: Perfluorohexanoic Acid; 80 mg/kg; oral; Female; Harlan Sprague Dawley
[36] = test system: Rat; test: concentration in plasma after dosing; conditions: 0.5 h; dosed: Perfluorohexanoic Acid; 80 mg/kg; oral; Male; Harlan Sprague Dawley
[37] = test system: Rat; test: concentration in plasma after dosing; conditions: dosed: Perfluorohexanoic Acid, 40 mg/kg, iv, Male, F344

Cc1ccc(C)c(OCCCC(C)(C)C(=O)O)c1 [Gemfibrozil]
Conditions	concentration in plasma [ng/mL]
[1]	234
[2]	79300
[3]	130000
[4]	7800
[5]	285

O=C(O)CCC(F)(F)C(F)(F)C(F)(F)C(F)(F)C(F)(F)C(F)(F)C(F)(F)F [Fluorotelomer acid 7+3]
Conditions	concentration in brain [ng/g]	concentration in kidney [ng/g]	concentration in liver [ng/g]	concentration in plasma [ng/mL]
[6]	–	–	2020	–
[7]	1470	–	–	–
[8]	–	–	1500	–
[9]	–	–	–	51.7
[11]	–	1320	–	–

concentration in plasma [ng/mL]
Conditions	0.25 h	3 h	5 min	24 h
[10]	–	3090	25.4	–
[12]	37	–	–	183

ClC=C(Cl)Cl [trichloroethylene]
[13]
Conditions	concentration in blood [ng/mL]
0.2317 h	2420
0.4119 h	1510
0.9932 h	820
1.803 h	370
3.975 h	289

[13], during exposure
Conditions	concentration in blood [ng/mL]
-6 s	2790
-3.423 h	1890
-3.024 h	1360
-1.999 h	2680
-1.012 h	2670

O=S(=O)([O-])C(F)(F)C(F)(F)C(F)(F)C(F)(F)C(F)(F)C(F)(F)C(F)(F)C(F)(F)F [Perfluorooctane Sulfonate]
Conditions	concentration in brain [ng/g]	concentration in kidney [ng/g]	concentration in liver [ng/g]	concentration in plasma [ng/mL]
[14]	–	–	20600	–
[15]	–	–	24500	–
[16]	4440	–	–	–
[17]	3430	–	–	–
[18]	–	–	4340	–
[20]	–	–	–	4580
[21]	–	3800	–	–

concentration in plasma [ng/mL]
Conditions	5 min	6 h	24 h	864 h	1200 h
[19]	5510	–	3580	–	562
[22]	–	4560	–	1530	–

CC1CCCO1 (stereo not drawn) [2-Methyltetrahydrofuran]
Conditions	concentration in brain [ng/mL]	concentration in plasma [ng/mL]
[23]	9940	–
[24]	11300	–
[25]	15800	–
[26]	8260	–
[27]	16200	–
[28]	24100	–
[29]	–	57300
[30]	–	59400

O=C(O)C(F)(F)C(F)(F)C(F)(F)C(F)(F)C(F)(F)F [Perfluorohexanoic Acid]
Conditions	concentration in kidney [ng/g]	concentration in liver [ng/g]	concentration in plasma [ng/mL]
[31]	–	820	–
[32]	–	83600	–
[33]	–	–	6480
[35]	48100	–	–
[36]	–	–	151000

concentration in plasma [ng/mL]
Conditions	0.25 h	3 h	5 min	24 h
[34]	91200	–	–	239
[37]	–	3900	23100	–
